# Reference: PubChem BioAssay (NCI)
#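 Assay format: 96-well plates, 48-hour exposure. GI50: concentration for 50% inhibition of growth. The concentration for full growth arrest is given as TGI.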
# Tests used:
# Experiment in all cases: growth of human tumour cells (NCI), 48 h
# OVCAR-4 ovarian = system: OVCAR-4 ovarian
# HL-60(TB) leukemia = system: HL-60(TB) leukemia
# SNB-19 CNS = system: SNB-19 CNS
# SK-MEL-5 melanoma = system: SK-MEL-5 melanoma
# 786-0 renal = system: 786-0 renal
# MDA-MB-435 = system: MDA-MB-435
# A549 NSCLC = system: A549 NSCLC
# UO-31 renal = system: UO-31 renal
# CCRF-CEM leukemia = system: CCRF-CEM leukemia
# BT-549 breast = system: BT-549 breast
SMILES,GI50 (OVCAR-4 ovarian) [µM],TGI (OVCAR-4 ovarian) [µM],GI50 (HL-60(TB) leukemia) [µM],TGI (HL-60(TB) leukemia) [µM],GI50 (SNB-19 CNS) [µM],TGI (SNB-19 CNS) [µM],GI50 (SK-MEL-5 melanoma) [µM],TGI (SK-MEL-5 melanoma) [µM],GI50 (786-0 renal) [µM],TGI (786-0 renal) [µM],GI50 (MDA-MB-435) [µM],TGI (MDA-MB-435) [µM],GI50 (A549 NSCLC) [µM],TGI (A549 NSCLC) [µM],GI50 (UO-31 renal) [µM],TGI (UO-31 renal) [µM],GI50 (CCRF-CEM leukemia) [µM],TGI (CCRF-CEM leukemia) [µM],TGI (BT-549 breast) [µM],GI50 (BT-549 breast) [µM]
Cc1nc2ccccc2nc1N=Nc1ccccc1,16.5,> 100,20.6,56.6,50.3,> 100,16,30.1,26.9,> 100,18.3,48.8,37.3,> 100,7.99,> 100,25,> 100,–,–
c1ccc(OCc2nnc3n2N=C(c2ccccc2)CS3)cc1,–,> 100,–,> 100,–,> 100,–,> 100,–,> 100,–,–,–,> 100,–,> 100,–,> 100,–,–
COc1cccc(SSc2cccc(OC)c2C(=O)O)c1C(=O)O,–,> 100,–,> 100,–,–,–,> 100,–,> 100,–,–,–,> 100,–,> 100,–,> 100,–,–
C/C(=N\NC(=S)N1CCCCCC1)c1cccc2cccnc12,–,> 21.4,–,> 45.7,–,> 44.2,–,–,–,> 86.9,–,> 100,–,> 100,–,> 44.2,–,> 100,> 92.4,–
CCCCCCNCc1cc(C(C)(C)C)cc(CNCCCCCC)c1O,1.85,3.47,1.68,3.33,1.76,3.23,1.65,3.01,1.77,3.26,1.61,2.98,1.71,3.08,1.37,2.8,1.69,4.26,–,–
COC(=O)C(C(=O)OC)C(Br)C(Br)C(Br)c1ccccc1 (stereo unspecified),4.33,17.8,2.59,6.47,–,–,–,–,11.9,25.3,5.66,20.7,16.8,32.6,1.74,3.42,2.08,5.79,27.9,14.4
COc1cc2ccnc3c(=C(SC)SC)c(=O)c(c1OC)c23,–,30.2,–,5.04,–,> 100,–,–,–,23.1,–,–,–,> 100,–,29.3,–,17,–,–
Cc1c2c(c(C)c3c1[nH]c1ccccc13)CN(C)CC2,–,> 100,–,> 100,–,> 100,–,26.1,–,29.6,–,–,–,> 100,–,53,–,> 100,–,–
Nc1nc(N)c2nc3c(nc2n1)CCCCCCCCCC3,> 100,> 100,1.95,> 100,6.43,> 100,0.652,> 100,0.675,> 100,0.577,> 100,0.407,> 100,1.88,> 100,6.24,> 100,–,–
OCCN(CCO)c1cccc(N(CCO)CCO)n1,–,> 100,–,> 100,–,> 100,–,> 100,–,> 100,–,–,–,> 100,–,> 100,–,> 100,–,–
CCC1(CN(C)C)CC/C(=C\c2ccc(OC)c(OC)c2)C1=O (stereo unspecified),–,> 100,–,> 100,–,> 100,–,> 100,–,> 100,–,–,–,> 100,–,> 100,–,> 100,–,–
Cc1ccc(NC(=O)CCc2n[nH]c(=S)o2)cc1,–,> 100,–,> 100,–,> 100,–,> 100,–,> 100,–,–,–,> 100,–,> 100,–,> 100,–,–
C=Cn1c([N+](=O)[O-])cnc1/C=C/c1ccc(C(=O)OCCN2CCOCC2)cc1,–,> 100,–,–,–,> 100,–,> 100,–,> 100,–,> 100,–,> 100,–,–,–,> 100,> 100,–
N#Cc1cccc(C=NC23CC4CC(CC(C4)C2)C3)c1,–,> 100,–,42.2,–,> 100,–,–,–,> 100,–,–,–,> 100,–,> 100,–,> 100,–,–
COc1cccc(N2C(=O)C3C4C=C5c6ccccc6N(c6ccccc6)C5(C3C2=O)[C@H]2C(=O)N(c3cccc(OC)c3)C(=O)[C@@H]42)c1 (stereo partly specified),–,> 100,–,> 100,–,> 100,–,> 100,–,> 100,–,–,–,> 100,–,> 100,–,> 100,–,–
CC([O-])=C1C(=O)c2ccccc2C1=O.CC([O-])=C1C(=O)c2ccccc2C1=O.CC[O-].CC[O-].[Ti+4],> 100,> 100,> 100,> 100,44.1,> 100,> 100,> 100,> 100,> 100,–,–,–,–,> 100,> 100,> 100,> 100,–,–
COC(=O)Cc1cc(=O)[nH]c2c1C(=O)CCC2,–,–,–,> 100,–,> 100,–,> 100,–,> 100,–,–,–,> 100,–,> 100,–,> 100,–,–
O=C1CCCCC12CCC/C2=N\O (stereo unspecified),–,> 100,–,> 100,–,> 100,–,> 100,–,> 100,–,–,–,> 100,–,> 100,–,> 100,–,–
O=C1OC(=O)C2C3C=CC(C12)C1C2C=CC2C31 (stereo unspecified),–,> 100,–,> 100,–,> 100,–,–,–,> 100,–,–,–,> 100,–,–,–,> 100,–,–
O=C(NCCCl)SCCO,–,> 100,–,> 100,–,> 100,–,–,–,> 100,–,–,–,> 100,–,> 100,–,> 100,–,–
CC1SC2(CCCCC2)N(NC(=O)c2[nH]c3ccc(Br)cc3c2-c2ccccc2)C1=O (stereo unspecified),13.2,90.7,–,–,40.8,> 100,> 100,> 100,17.5,98.4,30.1,> 100,15.7,> 100,21.6,> 100,7,> 100,> 100,> 100
